Source: patent US9708312B2, “Dihydropyrimidinoisoquinolinones and pharmaceutical compositions thereof for the treatment of inflammatory disorders (GPR84 antagonists)” (GALAPAGOS NV, priority 2012, dated 2017)

The molecules below were run against T1, GPR84 (Homo sapiens, UniProt Q9NQS5) (assay: GPR84 [35S]GTPγS binding assay, HEPES buffer). Conditions: 3,3′ di indolylmethane at EC80, membranes from stable cell line over expressing GPR84.
T1 construct: expressed in transfected cells
Assay type: biochemical
Protocol: 1.1. Cell Based Assay: GTp-γ S Binding Assay.
The following assay can be used for determination of GPR84 activation.
The assay is performed in a 96 well plate where the following reagents are added. […] In a last step, 30 μL of a mixture consisting of membranes-GTPγS-SpA beads is added [mixture consists of 20 μg/well membranes derived from stable cell line over expressing GPR84 (membranes are pre-incubated with 0.1 μM GDP for 15 min at 4° C.), 0.1 nM [^35S]GTPγS (Perkin Elmer, NEG030) and 0.5 mg/well PVT-WGA SpA beads (Perkin Elmer, RPNQ0001)]. All components are diluted in assay buffer containing 20 mM HEPES pH 7.4; 5 mM MgCl2; 250 mM NaCl; 0.05% BSA; 75 ug/mL saponin Reactions are incubated for 90 min at room temperature followed by centrifugation at 2000 rpm during 15 min. Plates are read on a Topcount reader (Perkin Elmer) immediately after centrifugation (readout time, 1 min/well).

T1 sequence (Q9NQS5 whole entry): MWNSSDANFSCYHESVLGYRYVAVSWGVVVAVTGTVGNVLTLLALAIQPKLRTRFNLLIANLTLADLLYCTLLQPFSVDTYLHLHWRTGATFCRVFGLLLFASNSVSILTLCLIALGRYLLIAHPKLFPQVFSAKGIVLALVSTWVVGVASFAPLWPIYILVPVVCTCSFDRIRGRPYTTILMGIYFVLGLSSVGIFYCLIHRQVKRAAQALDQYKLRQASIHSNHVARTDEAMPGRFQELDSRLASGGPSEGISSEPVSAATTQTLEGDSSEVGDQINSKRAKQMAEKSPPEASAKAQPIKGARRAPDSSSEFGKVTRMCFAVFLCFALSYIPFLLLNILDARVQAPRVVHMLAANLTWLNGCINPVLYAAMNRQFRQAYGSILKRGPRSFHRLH

IC50 [nM] | Compound
100 to 500 | CN1CCCC1CCOc1ccc2c(c1)CCn1c-2cc(OCC2COc3ncccc3O2)nc1=O (stereo not drawn) [compound 92, 2-(2,3-dihydro-[1,4]dioxino[2,3-b]pyridin-2-ylmethoxy)-9-[2-(1-methyl-pyrrolidin-2-yl)-ethoxy]-6,7-dihydro-pyrimido[6,1-a]isoquinolin-4-one]
500 to 1000 | O=C(O)c1cccc(-c2ccc3c(c2)CCn2c-3cc(OCC3CCCO3)nc2=O)c1 (stereo not drawn) [compound 103, 3-[4-oxo-2-(tetrahydro-furan-2-ylmethoxy)-6,7-dihydro-4H-pyrimido[6,1-a]isoquinolin-9-yl]-benzoic acid]
100 to 500 | O=c1nc(OCC2CCCO2)cc2n1CCc1cc(OCc3ccccn3)ccc1-2 (stereo not drawn) [compound 14, 9-(pyridin-2-ylmethoxy)-2-(tetrahydro-furan-2-ylmethoxy)-6,7-dihydro-pyrimido[6,1-a]isoquinolin-4-one]
0.01 to 100 | O=c1nc(OCC2CCCO2)cc2n1CCc1cc(OCc3ccc([N+](=O)[O-])cc3)ccc1-2 (stereo not drawn) [compound 33, 9-(4-nitro-benzyloxy)-2-(tetrahydro-furan-2-ylmethoxy)-6,7-dihydro-pyrimido[6,1-a]isoquinolin-4-one]
100 to 500 | O=c1nc(OCC2CCCO2)cc2n1CCc1cc(OCc3ccncc3)ccc1-2 (stereo not drawn) [compound 13, 9-(pyridin-4-ylmethoxy)-2-(tetrahydro-furan-2-ylmethoxy)-6,7-dihydro-pyrimido[6,1-a]isoquinolin-4-one]
100 to 500 | O=c1nc(OCC2CCCO2)cc2n1CCc1cc(OCCc3ccccc3)ccc1-2 (stereo not drawn) [compound 12, 9-phenethyloxy-2-(tetrahydro-furan-2-ylmethoxy)-6,7-dihydro-pyrimido[6,1-a]isoquinolin-4-one]
100 to 500 | CCN(CC)C(=O)COc1ccc2c(c1)CCn1c-2cc(OCC2COc3ccccc3O2)nc1=O (stereo not drawn) [compound 66, 2-[2-(2,3-dihydro-benzo[1,4]dioxin-2-ylmethoxy)-4-oxo-6,7-dihydro-4H-pyrimido[6,1-a]isoquinolin-9-yloxy]-N,N-diethyl-acetamide]
0.01 to 100 | CNC(=O)c1ccc(-c2ccc3c(c2)CCn2c-3cc(OCC3COc4ncccc4O3)nc2=O)cn1 (stereo not drawn) [compound 147, 5-[2-(2,3-dihydro-[1,4]dioxino[2,3-b]pyridin-2-ylmethoxy)-4-oxo-6,7-dihydro-4H-pyrimido[6,1-a]isoquinolin-9-yl]-pyridine-2-carboxylic acid methylamide]
100 to 500 | O=c1nc(OCC2CCCO2)cc2n1CCc1cc(OCc3cccnc3)ccc1-2 (stereo not drawn) [compound 8, 9-(pyridin-3-ylmethoxy)-2-(tetrahydro-furan-2-ylmethoxy)-6,7-dihydro-pyrimido[6,1-a]isoquinolin-4-one]
500 to 1000 | N#Cc1ccccc1-c1ccc2c(c1)CCn1c-2cc(OCC2CCCO2)nc1=O (stereo not drawn) [compound 107, 2-[4-oxo-2-(tetrahydro-furan-2-ylmethoxy)-6,7-dihydro-4H-pyrimido[6,1-a]isoquinolin-9-yl]-benzonitrile]
0.01 to 100 | O=c1nc(OCC2CCCO2)cc2n1CCc1cc(OCCOCc3ccccc3)ccc1-2 (stereo not drawn) [compound 51, 9-(2-benzyloxy-ethoxy)-2-(tetrahydro-furan-2-ylmethoxy)-6,7-dihydro-pyrimido[6,1-a]isoquinolin-4-one]
500 to 1000 | CC(C)C1CC(COc2cc3n(c(=O)n2)CCc2cc(C#CC4CC4)ccc2-3)O1 (stereo not drawn) [compound 203, 9-cyclopropylethynyl-2-(4-isopropyl-oxetan-2-ylmethoxy)-6,7-dihydro-pyrimido[6,1-a]isoquinolin-4-one]
0.01 to 100 | O=c1nc(OCC2COc3ccccc3O2)cc2n1CCc1cc(OCC3COc4ccccc4O3)ccc1-2 (stereo not drawn) [compound 30, 2,9-bis-(2,3-dihydro-benzo[1,4]dioxin-2-ylmethoxy)-6,7-dihydro-pyrimido[6,1-a]isoquinolin-4-one]
0.01 to 100 | CC(C)(C)c1nc(COc2ccc3c(c2)CCn2c-3cc(OCC3CCCO3)nc2=O)no1 (stereo not drawn) [compound 87, 9-(5-tert-butyl-[1,2,4]oxadiazol-3-ylmethoxy)-2-(tetrahydro-furan-2-ylmethoxy)-6,7-dihydro-pyrimido[6,1-a]isoquinolin-4-one]
100 to 500 | O=c1nc(OCC2COc3ncccc3O2)cc2n1CCc1cc(C#CCN3CCS(=O)(=O)CC3)ccc1-2 (stereo not drawn) [compound 174, 2-(2,3-dihydro-[1,4]dioxino[2,3-b]pyridin-2-ylmethoxy)-9-[3-(1,1-dioxo-thiomorpholin-4-yl)-prop-1-ynyl]-6,7-dihydro-pyrimido[6,1-a]isoquinolin-4-one]
500 to 1000 | O=c1nc(OCC2CCCO2)cc2n1CCc1cc(-c3cccnc3)ccc1-2 (stereo not drawn) [compound 94, 9-pyridin-3-yl-2-(tetrahydro-furan-2-ylmethoxy)-6,7-dihydro-pyrimido[6,1-a]isoquinolin-4-one]
100 to 500 | O=c1nc(OCC2COc3ccccc3O2)cc2n1CCc1cc(OCCN3CCCCC3)ccc1-2 (stereo not drawn) [compound 80, 2-(2,3-dihydro-benzo[1,4]dioxin-2-ylmethoxy)-9-(2-piperidin-1-yl-ethoxy)-6,7-dihydro-pyrimido[6,1-a]isoquinolin-4-one]
0.01 to 100 | Cn1cc(-c2ccc3c(c2)CCn2c-3cc(OCC3COc4ncccc4O3)nc2=O)cn1 (stereo not drawn) [compound 149, 2-(2,3-dihydro-[1,4]dioxino[2,3-b]pyridin-2-ylmethoxy)-9-(1-methyl-1H-pyrazol-4-yl)-6,7-dihydro-pyrimido[6,1-a]isoquinolin-4-one]
100 to 500 | C=CCOc1ccc2c(c1)CCn1c-2cc(OCC2COc3ncccc3O2)nc1=O (stereo not drawn) [compound 77, 9-allyloxy-2-(2,3-dihydro-[1,4]dioxino[2,3-b]pyridin-2-ylmethoxy)-6,7-dihydro-pyrimido[6,1-a]isoquinolin-4-one]
0.01 to 100 | O=c1nc(OCC2CCCO2)cc2n1CCc1cc(OCc3ccc4ccccc4c3)ccc1-2 (stereo not drawn) [compound 37, 9-(naphthalen-2-ylmethoxy)-2-(tetrahydro-furan-2-ylmethoxy)-6,7-dihydro-pyrimido[6,1-a]isoquinolin-4-one]
100 to 500 | NC1(C#Cc2ccc3c(c2)CCn2c-3cc(OCC3COc4ncccc4O3)nc2=O)CCCCC1 (stereo not drawn) [compound 184, 9-(1-amino-cyclohexylethynyl)-2-(2,3-dihydro-[1,4]dioxino[2,3-b]pyridin-2-ylmethoxy)-6,7-dihydro-pyrimido[6,1-a]isoquinolin-4-one]
0.01 to 100 | O=c1nc(OCC2CCCO2)cc2n1CCc1cc(OCc3cccc(-c4ccoc4)n3)ccc1-2 (stereo not drawn) [compound 56, 9-(6-furan-3-yl-pyridin-2-ylmethoxy)-2-(tetrahydro-furan-2-ylmethoxy)-6,7-dihydro-pyrimido[6,1-a]isoquinolin-4-one]
100 to 500 | O=c1nc(OCC2CCCO2)cc2n1CCc1cc(-c3ccccc3)ccc1-2 (stereo not drawn) [compound 96, 9-phenyl-2-(tetrahydro-furan-2-ylmethoxy)-6,7-dihydro-pyrimido[6,1-a]isoquinolin-4-one]
0.01 to 100 | CCOc1ccc(-c2ccc3c(c2)CCn2c-3cc(OCC3COc4ncccc4O3)nc2=O)cn1 (stereo not drawn) [compound 164, 2-(2,3-dihydro-[1,4]dioxino[2,3-b]pyridin-2-ylmethoxy)-9-(6-ethoxy-pyridin-3-yl)-6,7-dihydro-pyrimido[6,1-a]isoquinolin-4-one]
